SMILES	melting point
Cc1c(NC(=O)c2ccc(OC[C@@H]3CCCO3)cc2F)ccc2cc(CN[C@H]3CC[C@](C)(O)CC3)[nH]c12 [Example 77, 2-fluoro-N-(2-{[(trans-4-hydroxy-4-methylcyclohexyl)amino]methyl}-7-methyl-1H-indol-6-yl)-4-[(2S)-tetrahydrofuran-2-ylmethoxy]benzamide]	152 to 153 °C
Cc1c(NC(=O)c2ccc(OCC3CC3)cc2)ccc2cc(CN[C@H]3CC[C@](C)(O)CC3)n(C)c12 [Example 79, 4-(cyclopropylmethoxy)-N-(2-{[(trans-4-hydroxy-4-methylcyclohexyl)amino]methyl}-1,7-dimethyl-1H-indol-6-yl)benzamide]	167 °C
Cc1c(NC(=O)c2ccc(OCC3CC3)cc2)ccc2cc(CN3CCC(C)(O)CC3)n(C)c12 [Example 80, 4-(cyclopropylmethoxy)-N-{2-[(4-hydroxy-4-methylpiperidin-1-yl)methyl]-1,7-dimethyl-1H-indol-6-yl}benzamide]	152 to 155 °C
Cc1c(NC(=O)c2ccc(OC[C@@H]3CCCO3)cc2)ccc2cc(CNCC(C)(C)C)n(C)c12 [Example 81, N-(2-{[(2,2-dimethylpropyl)amino]methyl}-1,7-dimethyl-1H-indol-6-yl)-4-[(2S)-tetrahydrofuran-2-ylmethoxy]benzamide]	201 °C
Cc1c(NC(=O)c2ccc(OC[C@@H]3CCCO3)cc2)ccc2cc(CNCC(C)(C)O)n(C)c12 [Example 82, N-(2-{[(2-hydroxy-2-methylpropyl)amino]methyl}-1,7-dimethyl-1H-indol-6-yl)-4-[(2S)-tetrahydrofuran-2-ylmethoxy]benzamide]	197 to 200 °C
Cc1c(NC(=O)c2ccc(OC[C@@H]3CCCO3)cc2)ccc2cc(CNCC(C)C)n(C)c12 [Example 85, N-(1,7-dimethyl-2-{[(2-methylpropyl)amino]methyl}-1H-indol-6-yl)-4-[(2S)-tetrahydrofuran-2-ylmethoxy]benzamide]	183 °C
Cc1c(NC(=O)c2ccc(OC[C@@H]3CCCO3)cc2)ccc2cc(CN3CCC(C)(O)CC3)n(C)c12 [Example 87, N-{2-[(4-hydroxy-4-methylpiperidin-1-yl)methyl]-1,7-dimethyl-1H-indol-6-yl}-4-[(2S)-tetrahydrofuran-2-ylmethoxy]benzamide]	140 to 141 °C
Cc1c(NC(=O)c2ccc(OC[C@@H]3CCCO3)cc2F)ccc2cc(CNCC(C)(C)O)n(C)c12 [Example 89, 2-fluoro-N-(2-{[(2-hydroxy-2-methylpropyl)amino]methyl}-1,7-dimethyl-1H-indol-6-yl)-4-[(2S)-tetrahydrofuran-2-ylmethoxy]benzamide]	132 to 133 °C
Cc1c(NC(=O)c2ccc(C#CC3(O)CC3)cc2)ccc2cc(CNCC(C)C)n(C)c12 [Example 90, N-(1,7-dimethyl-2-{[(2-methylpropyl)amino]methyl}-1H-indol-6-yl)-4-[(1-hydroxycyclopropyl)ethynyl]benzamide]	186 °C
Cc1c(NC(=O)c2ccc(C#CC3(O)CC3)cc2)ccc2cc(CNCC(C)(C)C)n(C)c12 [Example 91, N-(2-{[(2,2-dimethylpropyl)amino]methyl}-1,7-dimethyl-1H-indol-6-yl)-4-[(1-hydroxycyclopropyl)ethynyl]benzamide]	182 to 183 °C
Cc1c(NC(=O)c2ccc(C#CC3(O)CCC3)cc2)ccc2cc(CNCC(C)C)n(C)c12 [Example 92, 4-[(1-hydroxycyclobutyl)ethynyl]-N-(2-{[(2-methylpropyl)amino]methyl}-1,7-dimethyl-1H-indol-6-yl)benzamide]	222 to 223 °C
Cc1c(NC(=O)c2ccc(C#CC3(O)CCC3)cc2)ccc2cc(CNCC(C)(C)C)n(C)c12 [Example 93, N-(2-{[(2,2-dimethylpropyl)amino]methyl}-1,7-dimethyl-1H-indol-6-yl)-4-[(1-hydroxycyclobutyl)ethynyl]benzamide]	232 to 233 °C

Second part, the molecule after the results:

melting point	SMILES
202 to 204 °C	Cc1c(NC(=O)c2ccc(C#CC3(O)CCC3)cc2)ccc2cc(CNCC3CCOCC3)n(C)c12 [Example 94, N-(1,7-dimethyl-2-{[(tetrahydro-2H-pyran-4-ylmethyl)amino]methyl}-1H-indol-6-yl)-4-[(1-hydroxycyclobutyl)ethynyl]benzamide]
118 to 119 °C	Cc1c(CNCC(C)C)[nH]c2c(C)c(NC(=O)c3ccc(OC[C@@H]4CCCO4)cc3)ccc12 [Example 96, N-(2-{[(2-methylpropyl)amino]methyl}-3,7-dimethyl-1H-indol-6-yl)-4-[(2S)-tetrahydrofuran-2-ylmethoxy]benzamide]
184 to 185 °C	Cc1c(CNCC2CCOCC2)[nH]c2c(C)c(NC(=O)c3ccc(OC[C@@H]4CCCO4)cc3)ccc12 [Example 97, N-(3,7-dimethyl-2-{[(tetrahydro-2H-pyran-4-ylmethyl)amino]methyl}-1H-indol-6-yl)-4-[(2S)-tetrahydrofuran-2-ylmethoxy]benzamide]
178 to 179 °C	Cc1c(CNCC(C)(C)C)[nH]c2c(C)c(NC(=O)c3ccc(OC[C@@H]4CCCO4)cc3)ccc12 [Example 98, N-(2-{[(2,2-dimethylpropyl)amino]methyl}-3,7-dimethyl-1H-indol-6-yl)-4-[(2S)-tetrahydrofuran-2-ylmethoxy]benzamide]
134 to 135 °C	Cc1c(CN[C@H]2CC[C@](C)(O)CC2)[nH]c2c(C)c(NC(=O)c3ccc(OC[C@@H]4CCCO4)cc3)ccc12 [Example 99, N-(2-{[(trans-4-hydroxy-4-methylcyclohexyl)amino]methyl}-3,7-dimethyl-1H-indol-6-yl)-4-[(2S)-tetrahydrofuran-2-ylmethoxy]benzamide]
107 to 109 °C	Cc1c(CNC2CCCC2)[nH]c2c(C)c(NC(=O)c3ccc(OC[C@@H]4CCCO4)cc3)ccc12 [Example 100, N-{2-[(cyclopentylamino)methyl]-3,7-dimethyl-1H-indol-6-yl}-4-[(2S)-tetrahydrofuran-2-ylmethoxy]benzamide]
151 to 152 °C	Cc1c(CNCC(C)(C)O)[nH]c2c(C)c(NC(=O)c3ccc(OC[C@@H]4CCCO4)cc3F)ccc12 [Example 101, 2-fluoro-N-(2-{[(2-hydroxy-2-methylpropyl)amino]methyl}-3,7-dimethyl-1H-indol-6-yl)-4-[(2S)-tetrahydrofuran-2-ylmethoxy]benzamide]
177 to 178 °C	Cc1c(CN[C@H]2CC[C@](C)(O)CC2)[nH]c2c(C)c(NC(=O)c3ccc(OC[C@@H]4CCCO4)cc3F)ccc12 [Example 102, 2-fluoro-N-(2-{[(trans-4-hydroxy-4-methylcyclohexyl)amino]methyl}-3,7-dimethyl-1H-indol-6-yl)-4-[(2S)-tetrahydrofuran-2-ylmethoxy]benzamide]
134 to 135 °C	Cc1c(CNCC(C)C)[nH]c2c(F)c(NC(=O)c3ccc(OC[C@@H]4CCCO4)cc3)ccc12 [Example 104, N-(7-fluoro-2-{[(2-methylpropyl)amino]methyl}-3-methyl-1H-indol-6-yl)-4-[(2S)-tetrahydrofuran-2-ylmethoxy]benzamide]
171 to 172 °C	Cc1c(CNCC(C)C)n(C)c2c(C)c(NC(=O)c3ccc(OC[C@@H]4CCCO4)cc3)ccc12 [Example 106, N-(2-{[(2-methylpropyl)amino]methyl}-1,3,7-trimethyl-1H-indol-6-yl)-4-[(2S)-tetrahydrofuran-2-ylmethoxy]benzamide]
173 to 174 °C	Cc1c(CNCC2CCOCC2)n(C)c2c(C)c(NC(=O)c3ccc(OC[C@@H]4CCCO4)cc3)ccc12 [Example 107, 4-[(2S)-tetrahydrofuran-2-ylmethoxy]-N-(1,3,7-trimethyl-2-{[(tetrahydro-2H-pyran-4-ylmethyl)amino]methyl}-1H-indol-6-yl)benzamide]
186 to 188 °C	Cc1c(CNCC(C)(C)O)n(C)c2c(C)c(NC(=O)c3ccc(OC[C@@H]4CCCO4)cc3)ccc12 [Example 108, N-(2-{[(2-hydroxy-2-methylpropyl)amino]methyl}-1,3,7-trimethyl-1H-indol-6-yl)-4-[(2S)-tetrahydrofuran-2-ylmethoxy]benzamide]
183 to 184 °C	Cc1c(CN[C@H]2CC[C@](C)(O)CC2)n(C)c2c(C)c(NC(=O)c3ccc(OC[C@@H]4CCCO4)cc3)ccc12 [Example 109, N-(2-{[(trans-4-hydroxy-4-methylcyclohexyl)amino]methyl}-1,3,7-trimethyl-1H-indol-6-yl)-4-[(2S)-tetrahydrofuran-2-ylmethoxy]benzamide]
131 to 132 °C	Cc1c(CNCC(C)(C)O)n(C)c2c(C)c(NC(=O)c3ccc(OC[C@@H]4CCCO4)cc3F)ccc12 [Example 111, 2-fluoro-N-(2-{[(2-hydroxy-2-methylpropyl)amino]methyl}-1,3,7-trimethyl-1H-indol-6-yl)-4-[(2S)-tetrahydrofuran-2-ylmethoxy]benzamide]
122 to 124 °C	Cc1c(CN[C@H]2CC[C@](C)(O)CC2)n(C)c2c(F)c(NC(=O)c3ccc(OC[C@@H]4CCCO4)cc3)ccc12 [Example 112, N-(7-fluoro-2-{[(trans-4-hydroxy-4-methylcyclohexyl)amino]methyl}-1,3-dimethyl-1H-indol-6-yl)-4-[(2S)-tetrahydrofuran-2-ylmethoxy]benzamide]
132 to 134 °C	Cc1c(CNCC2CCOCC2)n(C)c2c(F)c(NC(=O)c3ccc(OC[C@@H]4CCCO4)cc3)ccc12 [Example 113, N-(7-fluoro-1,3-dimethyl-2-{[(tetrahydro-2H-pyran-4-ylmethyl)amino]methyl}-1H-indol-6-yl)-4-[(2S)-tetrahydrofuran-2-ylmethoxy]benzamide]

From US8642770B2, “Indole derivative” (Takeda Pharmaceutical Company Limited, priority 2010, dated 2014)
